Legend:
[1] = tested on: oilseed rape; assay: Test C preemergence; format: in vivo, Brassica napus; conditions: for Oilseed Rape plant response rating: preemergence; for Plant response rating, Oilseed Rape: Preemergence, 31 g ai/ha, scale 0 to 100, 0 no effect, 100 complete control
Summary of the method: (§1)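 Rated visually on 0–100 (100 = complete control) after 13–15 days under glass. Treatments went onto freshly seeded loam/sand soil or onto emerged plants at the 1- to 4-leaf stage, using a surfactant-containing solvent formulation.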

[2] = tested on: galium; assay: Test C preemergence; format: in vivo, Galium aparine; conditions: for Galium plant response rating: preemergence; for Plant response rating, Galium: Preemergence, 31 g ai/ha, scale 0 to 100, 0 no effect, 100 complete control
Summary of the method: as §1

[3] = tested on: pigweed; assay: Test A postemergence; format: in vivo, Amaranthus retroflexus
Summary of the method: (§2)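 Visual injury scored 0–100 (100 = complete control) against untreated controls about 10 days after treatment in a greenhouse. Test chemicals, formulated with surfactant in non-phytotoxic solvent, were sprayed on soil preemergence or on 2-10 cm, one- to two-leaf plants postemergence.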

[4] = tested on: velvetleaf; assay: Test C postemergence; format: in vivo, Abutilon theophrasti; conditions: for Plant response rating, Velvetleaf: scale 0 to 100 (0 no effect, 100 complete control); for Plant response rating (0 to 100), Velvetleaf: 16 g ai/ha, 0 is no effect, 100 is complete control
Summary of the method: as §1

[5] = tested on: barnyardgrass; assay: Test A postemergence; format: in vivo, Echinochloa crus-galli
Summary of the method: as §2

[6] = tested on: waterhemp; assay: Test C preemergence; format: in vivo, Amaranthus rudis; conditions: for Waterhemp plant response rating: preemergence; for Plant response rating, Waterhemp: Preemergence, 31 g ai/ha, scale 0 to 100, 0 no effect, 100 complete control
Summary of the method: as §1

[7] = tested on: johnsongrass; assay: Test C postemergence; format: in vivo, Sorghum halepense; conditions: for Plant response rating (0 to 100), Johnsongrass: 0 is no effect, 100 is complete control
Summary of the method: as §1

[8] = tested on: soybean; assay: Test C postemergence; format: in vivo, Glycine max; conditions: for Plant response rating, Soybean: scale 0 to 100 (0 no effect, 100 complete control); for Plant response rating (0 to 100), Soybean: 16 g ai/ha, 0 is no effect, 100 is complete control
Summary of the method: as §1

[9] = tested on: soybean; assay: Test C preemergence; format: in vivo, Glycine max; conditions: for Soybean plant response rating: preemergence; for Plant response rating, Soybean: Preemergence, 31 g ai/ha, scale 0 to 100, 0 no effect, 100 complete control
Summary of the method: as §1

[10] = tested on: barnyardgrass; assay: Test C preemergence; format: in vivo, Echinochloa crus-galli; conditions: for Barnyardgrass plant response rating: preemergence; for Plant response rating, Barnyardgrass: Preemergence, 31 g ai/ha, scale 0 to 100, 0 no effect, 100 complete control
Summary of the method: as §1

[11] = tested on: giant foxtail; assay: Test A preemergence; format: in vivo, Setaria faberii; conditions: for Plant response rating, Foxtail, Giant: 125 g ai/ha
Summary of the method: as §2

[12] = tested on: barnyardgrass; assay: Test B flooded paddy test; format: in vivo, Echinochloa crus-galli; conditions: Flood, 250 g ai/ha; 0 to 100 scale where 0 is no effect and 100 is complete control
Summary of the method: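 Post-emergence paddy-water application at the 2-leaf stage, with 3 cm flood kept for the whole test. Response was judged visually relative to controls after 13 to 15 greenhouse days, 0 indicating no effect and 100 complete control.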

[13] = tested on: galium; assay: Test C postemergence; format: in vivo, Galium aparine; conditions: for Plant response rating (0 to 100), Galium: 0 is no effect, 100 is complete control
Summary of the method: as §1

[14] = tested on: morningglory; assay: Test C preemergence; format: in vivo, Ipomoea coccinea; conditions: for Morningglory plant response rating: preemergence; for Plant response rating, Morningglory: Preemergence, 31 g ai/ha, scale 0 to 100, 0 no effect, 100 complete control
Summary of the method: as §1

[15] = tested on: chickweed; assay: Test C postemergence; format: in vivo, Stellaria media; conditions: for Plant response rating (0 to 100), Chickweed: 0 is no effect, 100 is complete control
Summary of the method: as §1

[16] = 16 g ai/ha, scale 0 to 100 (0 no effect, 100 complete control)
[17] = 62 g ai/ha, scale 0 (no effect) to 100 (complete control)
[18] = 125 g ai/ha, scale 0 (no effect) to 100 (complete control)
[19] = 500 g ai/ha, 0 to 100 scale where 0 is no effect and 100 is complete control
[20] = 125 g ai/ha, postemergence, visual rating
[21] = 125 g ai/ha, 0 to 100 scale where 0 is no effect and 100 is complete control
[22] = 16 g ai/ha, postemergence, visual rating, scale 0 to 100 (0 no effect, 100 complete control), 13 to 15 days
[23] = 125 g ai/ha, postemergence, visual rating, scale 0 to 100 (0 no effect, 100 complete control)
[24] = Postemergence, 62 g ai/ha, scale 0 to 100 (0 no effect, 100 complete control)
[25] = 0 to 100 scale where 0 is no effect and 100 is complete control
[26] = 1000 g ai/ha, 0 to 100 scale, 0 no effect, 100 complete control

N#Cc1cnn(-c2c(C#N)cccc2Oc2ncc(F)cn2)c1 [Compound 111]
Oilseed Rape plant response rating [1, 16]: 60 | Oilseed Rape plant response rating [1, 17]: 98 | Oilseed Rape plant response rating [1, 18]: 100 | Plant response rating, Oilseed Rape [1]: 90 | Galium plant response rating [2, 16]: 90 | Galium plant response rating [2, 17]: 100 | Galium plant response rating [2, 18]: 75 | Plant response rating, Galium [2]: 100 | Plant response rating, Pigweed [3, 19]: 100 | Plant response rating, Velvetleaf [4, 20]: 80 | Plant response rating, Velvetleaf ([4]; Postemergence, 62 g ai/ha): 75 | Plant response rating, Barnyardgrass [5, 21]: 60 | Plant response rating, Barnyardgrass [5, 19]: 90 | Waterhemp plant response rating [6, 16]: 100 | Waterhemp plant response rating [6, 17]: 100 | Waterhemp plant response rating [6, 18]: 100 | Plant response rating, Waterhemp [6]: 100 | Johnsongrass plant response rating [7, 22]: 5 | Plant response rating, Johnsongrass [7, 23]: 10 | Plant response rating, Johnsongrass [7, 24]: 5 | Plant response rating, Soybean [8, 20]: 95 | Plant response rating, Soybean ([8]; Postemergence, 62 g ai/ha): 80 | Soybean plant response rating [9, 16]: 30 | Soybean plant response rating [9, 17]: 80 | Soybean plant response rating [9, 18]: 95 | Plant response rating, Soybean [9]: 60 | Barnyardgrass plant response rating [10, 16]: 5 | Barnyardgrass plant response rating [10, 17]: 90 | Barnyardgrass plant response rating [10, 18]: 100 | Plant response rating, Barnyardgrass [10]: 55 | Plant response rating, Foxtail, Giant [11, 25]: 100 | Foxtail, Giant plant response rating ([11]; 500 g ai/ha, 0 to 100 scale, 0 no effect, 100 complete control, approx. 10 days): 100 | Plant response rating, Barnyardgrass [12]: 0 | Galium plant response rating [13, 22]: 80 | Plant response rating, Galium [13, 23]: 100 | Plant response rating, Galium [13, 24]: 90 | Morningglory plant response rating [14, 16]: 20 | Morningglory plant response rating [14, 17]: 85 | Morningglory plant response rating [14, 18]: 100 | Plant response rating, Morningglory [14]: 45 | Chickweed plant response rating [15, 22]: 50 | Plant response rating, Chickweed [15, 23]: 95 | Plant response rating, Chickweed [15, 24]: 75

N#Cc1cn(-c2c(Br)cccc2Oc2ncc(Cl)cn2)nn1 [Compound 116]
Oilseed Rape plant response rating [1, 16]: 0 | Oilseed Rape plant response rating [1, 17]: 98 | Oilseed Rape plant response rating [1, 18]: 100 | Plant response rating, Oilseed Rape [1]: 5 | Galium plant response rating [2, 16]: 0 | Galium plant response rating [2, 17]: 100 | Galium plant response rating [2, 18]: 100 | Plant response rating, Galium [2]: 100 | Plant response rating, Pigweed [3, 26]: 100 | Plant response rating (0 to 100), Velvetleaf ([4]; postemergence): 25 | Plant response rating, Velvetleaf [4, 20]: 85 | Plant response rating, Velvetleaf ([4]; Postemergence, 62 g ai/ha): 60 | Plant response rating, Barnyardgrass [5, 26]: 90 | Waterhemp plant response rating [6, 16]: 100 | Waterhemp plant response rating [6, 17]: 100 | Waterhemp plant response rating [6, 18]: 100 | Plant response rating, Waterhemp [6]: 100 | Plant response rating (0 to 100), Johnsongrass ([7]; 16 g ai/ha, postemergence): 0 | Plant response rating, Johnsongrass [7, 23]: 15 | Plant response rating, Johnsongrass [7, 24]: 0 | Plant response rating (0 to 100), Soybean ([8]; postemergence): 15 | Plant response rating, Soybean [8, 20]: 95 | Plant response rating, Soybean ([8]; Postemergence, 62 g ai/ha): 60 | Soybean plant response rating [9, 16]: 0 | Soybean plant response rating [9, 17]: 40 | Soybean plant response rating [9, 18]: 70 | Plant response rating, Soybean [9]: 25 | Barnyardgrass plant response rating [10, 16]: 0 | Barnyardgrass plant response rating [10, 17]: 45 | Barnyardgrass plant response rating [10, 18]: 70 | Plant response rating, Barnyardgrass [10]: 25 | Foxtail, Giant plant response rating ([11]; 1000 g ai/ha, 0 to 100 scale, 0 no effect, 100 complete control, approx. 10 days): 100 | Plant response rating, Barnyardgrass [12]: 0 | Plant response rating (0 to 100), Galium ([13]; 16 g ai/ha, postemergence): 55 | Plant response rating, Galium [13, 23]: 80 | Plant response rating, Galium [13, 24]: 80 | Morningglory plant response rating [14, 16]: 0 | Morningglory plant response rating [14, 17]: 20 | Morningglory plant response rating [14, 18]: 20 | Plant response rating, Morningglory [14]: 5 | Plant response rating (0 to 100), Chickweed ([15]; 16 g ai/ha, postemergence): 40 | Plant response rating, Chickweed [15, 23]: 80 | Plant response rating, Chickweed [15, 24]: 55

Clc1cnc(Oc2cccc(Br)c2-n2cc(Br)nn2)nc1 [Compound 129]
Oilseed Rape plant response rating [1, 16]: 50 | Oilseed Rape plant response rating [1, 17]: 100 | Oilseed Rape plant response rating [1, 18]: 100 | Plant response rating, Oilseed Rape [1]: 85 | Galium plant response rating [2, 16]: 50 | Galium plant response rating [2, 17]: 95 | Galium plant response rating [2, 18]: 100 | Plant response rating, Galium [2]: 80 | Pigweed plant response rating [3, 21]: 100 | Plant response rating, Pigweed [3, 19]: 100 | Plant response rating (0 to 100), Velvetleaf ([4]; postemergence): 15 | Plant response rating, Velvetleaf [4, 20]: 40 | Plant response rating, Velvetleaf ([4]; Postemergence, 62 g ai/ha): 40 | Barnyardgrass plant response rating [5, 21]: 90 | Plant response rating, Barnyardgrass [5, 19]: 90 | Waterhemp plant response rating [6, 16]: 100 | Waterhemp plant response rating [6, 17]: 100 | Waterhemp plant response rating [6, 18]: 100 | Plant response rating, Waterhemp [6]: 100 | Plant response rating (0 to 100), Johnsongrass ([7]; 16 g ai/ha, postemergence): 5 | Plant response rating, Johnsongrass [7, 23]: 5 | Plant response rating, Johnsongrass [7, 24]: 5 | Plant response rating (0 to 100), Soybean ([8]; postemergence): 35 | Plant response rating, Soybean [8, 20]: 60 | Plant response rating, Soybean ([8]; Postemergence, 62 g ai/ha): 85 | Soybean plant response rating [9, 16]: 10 | Soybean plant response rating [9, 17]: 40 | Soybean plant response rating [9, 18]: 80 | Plant response rating, Soybean [9]: 10 | Barnyardgrass plant response rating [10, 16]: 5 | Barnyardgrass plant response rating [10, 17]: 40 | Barnyardgrass plant response rating [10, 18]: 90 | Plant response rating, Barnyardgrass [10]: 15 | Plant response rating, Foxtail, Giant [11, 25]: 100 | Foxtail, Giant plant response rating [11, 19]: 100 | Plant response rating, Barnyardgrass [12]: 0 | Plant response rating (0 to 100), Galium ([13]; 16 g ai/ha, postemergence): 50 | Plant response rating, Galium [13, 23]: 85 | Plant response rating, Galium [13, 24]: 55 | Morningglory plant response rating [14, 16]: 5 | Morningglory plant response rating [14, 17]: 45 | Morningglory plant response rating [14, 18]: 75 | Plant response rating, Morningglory [14]: 35 | Plant response rating (0 to 100), Chickweed ([15]; 16 g ai/ha, postemergence): 50 | Plant response rating, Chickweed [15, 23]: 55 | Plant response rating, Chickweed [15, 24]: 70

Reference: patent US9695155B2, “Herbicidal substituted pyrimidinyloxy benzene compounds” (E. I. DU PONT DE NEMOURS AND COMPANY, priority 2013, dated 2017)
